According to ChEMBL document CHEMBL5634144, “Design, synthesis and biological evaluation of novel DCLK1 inhibitor containing purine skeleton for the treatment of pancreatic cancer” (Eur J Med Chem, 2023):
pIC50: −log10 of the molar value. Activity calls are given as the source filed them. The calls are words filed in the database; no cut-off is given here.

Assays:
[1] = molecular target: T1, Serine/threonine-protein kinase DCLK1 (Homo sapiens, UniProt O15075); test: Inhibition of DCLK1 (unknown origin) in presence of 33P-ATP
T1 sequence (O15075 whole entry): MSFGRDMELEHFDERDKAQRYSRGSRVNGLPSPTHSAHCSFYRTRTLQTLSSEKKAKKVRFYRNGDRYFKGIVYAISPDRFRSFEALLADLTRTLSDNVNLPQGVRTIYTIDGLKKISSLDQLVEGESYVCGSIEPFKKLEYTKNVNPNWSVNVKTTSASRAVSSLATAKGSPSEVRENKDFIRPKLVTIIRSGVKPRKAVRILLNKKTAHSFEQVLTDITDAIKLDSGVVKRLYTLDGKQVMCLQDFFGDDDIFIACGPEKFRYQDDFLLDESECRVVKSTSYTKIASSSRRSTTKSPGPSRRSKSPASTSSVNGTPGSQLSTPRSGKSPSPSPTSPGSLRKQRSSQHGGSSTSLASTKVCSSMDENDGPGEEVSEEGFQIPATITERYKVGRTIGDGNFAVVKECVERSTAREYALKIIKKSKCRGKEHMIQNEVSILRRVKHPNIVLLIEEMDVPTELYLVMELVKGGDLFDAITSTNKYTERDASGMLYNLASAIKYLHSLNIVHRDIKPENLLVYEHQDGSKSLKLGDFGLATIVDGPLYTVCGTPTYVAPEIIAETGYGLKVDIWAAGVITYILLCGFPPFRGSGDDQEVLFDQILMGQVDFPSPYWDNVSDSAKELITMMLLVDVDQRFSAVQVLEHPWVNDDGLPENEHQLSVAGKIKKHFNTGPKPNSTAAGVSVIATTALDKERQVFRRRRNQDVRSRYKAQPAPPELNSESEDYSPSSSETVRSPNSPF

[2] = molecular target: T1, Serine/threonine-protein kinase DCLK1; test: Inhibition of DCLK1 (unknown origin) preincubated for 10 mins followed by substrate/ATP addition measured after 60 mins by mobility shift assay
[3] = system: SW1990; test: Antiproliferative activity against human SW1990 cells assessed as inhibition cell proliferation incubated for 6 days by MTT assay; assay type: functional, cell-based; details: SW1990, 144 h
[4] = system: HCT-116; test: Antiproliferative activity against human HCT-116 cells assessed as inhibition cell proliferation incubated for 6 days by MTT assay; assay type: functional, cell-based; details: HCT-116, 144 h
[5] = system: CAKI-1; test: Antiproliferative activity against human CAKI-1 cells assessed as inhibition cell proliferation incubated for 6 days by MTT assay; assay type: functional, cell-based; details: CAKI-1, 144 h
[6] = system: SW1990; test: Induction of apoptosis in human SW1990 cells assessed as viable cells at 10 uM incubated for 6 days by Annexin V/PI staining based flow cytometry (reference value: 92.93 %); assay type: functional; details: SW1990, 144 h, time 6 day, read-out: Activity
[7] = system: SW1990; test: Induction of apoptosis in human SW1990 cells assessed as early apoptotic cells at 10 uM incubated for 6 days by Annexin V/PI staining based flow cytometry (reference value: 4.55 %); assay type: functional; details: time 6 day
[8] = system: SW1990; test: Induction of apoptosis in human SW1990 cells assessed as late apoptotic cells at 10 uM incubated for 6 days by Annexin V/PI staining based flow cytometry (reference value: 2.01 %); assay type: functional; details: time 6 day
[9] = system: SW1990; test: Induction of apoptosis in human SW1990 cells assessed as necrotic cells at 10 uM incubated for 6 days by Annexin V/PI staining based flow cytometry (reference value: 0.50 %); assay type: functional; details: time 6 day
[10] = system: SW1990; test: Induction of cell cycle arrest at G0/G1 phase in human SW1990 cells at 10 uM incubated for 6 days by PI staining based flow cytometry (reference value: 49.65 %); assay type: functional; details: time 6 day
[11] = system: SW1990; test: Induction of cell cycle arrest at S phase in human SW1990 cells at 10 uM incubated for 6 days by PI staining based flow cytometry (reference value: 21.20 %); assay type: functional; details: time 6 day
[12] = system: SW1990; test: Induction of cell cycle arrest at G2/M phase in human SW1990 cells at 10 uM incubated for 6 days by PI staining based flow cytometry (reference value: 29.15 %); assay type: functional; details: time 6 day
[13] = system: SW1990; test: Inhibition of cell invasion in human SW1990 cells at 10 uM by transwell assay; assay type: functional, cell-based
[14] = system: SW1990; test: Inhibition of cell migration in human SW1990 cells at 10 uM by transwell assay; assay type: functional, cell-based
[15] = system: SW1990; test: Antitumor activity against human SW1990 cells xenografted in BALB/c nude mouse model assessed as tumor growth inhibition at 60 mg/kg, ip for 21 days consecutively relative to control; assay type: functional; details: SW1990, 504 h, time 21 day, read-out: TGI

Row | Structure (SMILES) | pIC50 [1] | pIC50 [2] | pIC50 [3] | pIC50 [4] | pIC50 [5] | viability at 10 µM [6] [%] | Activity [7] [%] | Activity [8] [%] | Activity [9] [%] | Activity [10] [%] | Activity [11] [%] | Activity [12] [%] | inhibition [13] | inhibition [14] | inhibition in vivo at 60 mg/kg [15] [%]
1 | COc1cc(N2CCN(C)CC2)ccc1Nc1ncc2c(n1)N(C)c1ccccc1C(=O)N2CC(F)(F)F | 7.24 | 7.42 | 4.85 | 5.21 | 4.91 | 60.6 | 18.23 | 12.13 | 8.99 | 61.36 | 16.89 | 21.75 | Active | Active | 24.8
2 | COc1ccccc1Nc1nc(Nc2ccccc2S(=O)(=O)C(C)C)c2nc[nH]c2n1 |  | 6.77 |  |  |  |  |  |  |  |  |  |  |  |  | 
